# Assay results reported in US11737466B2, “Method of improving the ability of plants to resistance diseases” (National Taiwan University, priority 2019, dated 2023).
# Test system: Bacillus amyloliquefaciens WF02
# Assay: antagonistic assay (inhibition zone) on Bacillus amyloliquefaciens WF02 plate
# Type: cell-based
# Conditions: 100,000 ppm, 20 μL, 37° C., 48 hours, positive control, read-out: diameter of inhibition zone on WF02 plate
# Description: To be used as leveling agents for the biological preparation, in the embodiment of the present invention, it is necessary to confirm that the Bidens pilosa extract of the present invention without the effect of inhibiting the growth of the Bacillus amyloliquefaciens WF02 of the present invention, so antagonistic assay was used; wherein ampicillin is known with the effect on inhibiting the growth of the Bacillus amyloliquefaciens, therefore, it was used as a positive control group. First, the Bacillus amyloliquefacien WF02 of the present invention was cultured in the above method and 100 μL of a bacterial solution with an OD600 value of 0.3, which approximately contains 10^8 CFU/mL, was uniformly applied to two agarose plates (diameter 9 cm) and a plurality of circular sterile filter papers (diameter 8 mm) was placed thereon; wherein one plate was for testing the higher concentration (125,000-200,000 ppm) of the Bidens pilosa of the present invention, and the other was for the lower concentration (300-2,000 ppm). […]
compound,measurement,value
CC1(C)S[C@@H]2[C@H](NC(=O)[C@H](N)c3ccccc3)C(=O)N2[C@H]1C(=O)O [ampicillin],zone of inhibition at 100000 ppm,~18.4 mm
